Test system: Huntingtin protein (HTT)
Assay: Endogenous Huntingtin Protein Assay (MSD electrochemiluminescence ELISA; MW1 or MAB2166 capture, #5656S detection)
Assay type: cell-based, human
Method: The Endogenous Huntingtin Protein assay used in Example 2 was developed using the Best Pair antibodies identified in Table 2, providing highly sensitive, high-throughput detection assays for polyglutamine-expanded (mHTT) and total human HTT in multiple cell systems. The platform used for the assay is the ELISA-based Meso Scale Discovery (MSD) electrochemiluminescence assay platform.
Meso Scale Discovery (MSD) 96-well or 384-well plates were coated overnight at 4° C. with MW1 (expanded polyglutamine) or MAB2166 monoclonal antibody (for capture) at a concentration of 1 μg/mL in PBS (30 μL per well). Plates were then washed three times with 300 μL wash buffer (0.05% Tween-20 in PBS) and blocked (100 μL blocking buffer; 5% BSA in PBS) for 4-5 hours at room temperature with rotational shaking and then washed three times with wash buffer.
Samples (25 μL) were transferred to the antibody-coated MSD plate and incubated overnight at 4° C. After removal of the lysates, the plate was washed three times with wash buffer, and 25 μL of #5656S (Cell signaling; rabbit monoclonal) secondary antibody (diluted to 0.25 μg/mL in 0.05% Tween-20 in blocking buffer) was added to each well and incubated with shaking for 1 Hour at room temperature. Following incubation with the secondary antibody, the wells were rinsed with wash buffer after which 25 μL of goat anti-rabbit SULFO TAG secondary detection antibody (required aspect of the MSD system) (diluted to 0.25 μg/mL in 0.05% Tween-20 in blocking buffer) was added to each well and incubated with shaking for 1 hour at room temperature. After rinsing three times with wash buffer, 150 μL of read buffer T with surfactant (MSD) were added to each empty well, and the plate was imaged on a SI 6000 imager (MSD) according to manufacturers' instructions provided for 96- or 384-well plates.

| Compound | IC50 |
| --- | --- |
| Oc1cc(-c2cn[nH]c2)ccc1-c1ccc(C2=CCNCC2)nn1 [Cpd 424, 5-(1H-pyrazol-4-yl)-2-[6-(1,2,3,6-tetrahydropyridin-4-yl)pyridazin-3-yl]phenol] | 0.1 to 0.5 µM |
| CCN1CC=C(c2ccc(-c3ccc(-c4cn[nH]c4)cc3O)nn2)CC1 [Cpd 425, 2-[6-(1-ethyl-1,2,3,6-tetrahydropyridin-4-yl)pyridazin-3-yl]-5-(1H-pyrazol-4-yl)phenol] | 0.1 to 0.5 µM |
| CN(c1ccc(-c2ccc(-c3cn[nH]c3)cc2O)nn1)C1CCNCC1 [Cpd 426, 2-{6-[methyl(piperidin-4-yl)amino]pyridazin-3-yl}-5-(1H-pyrazol-4-yl)phenol] | 0.1 to 0.5 µM |
| CN(c1ccc(-c2cc(F)c(-c3cn[nH]c3)cc2F)nn1)C1CC(C)(C)NC(C)(C)C1 [Cpd 428, 6-[2,5-difluoro-4-(1H-pyrazol-4-yl)phenyl]-N-methyl-N-(2,2,6,6-tetramethylpiperidin-4-yl)pyridazin-3-amine] | 0.1 to 0.5 µM |
| Oc1cc(-c2cn[nH]c2)ccc1-c1ccc(C2=CC3CCC(C2)N3)nn1 (stereo not drawn) [Cpd 429, 2-[6-(8-azabicyclo[3.2.1]oct-2-en-3-yl)pyridazin-3-yl]-5-(1H-pyrazol-4-yl)phenol] | 0.1 to 0.5 µM |
| CN(c1ccc(-c2ccc(-c3cn[nH]c3)c(F)c2F)nn1)C1CC(C)(C)NC(C)(C)C1 [Cpd 430, 6-[2,3-difluoro-4-(1H-pyrazol-4-yl)phenyl]-N-methyl-N-(2,2,6,6-tetramethylpiperidin-4-yl)pyridazin-3-amine] | 0.1 to 0.5 µM |
| Oc1cc(-c2cn[nH]c2)ccc1-c1ccc(NC2C[C@H]3CC[C@@H](C2)N3)nn1 (stereo partly drawn) [Cpd 433, 2-{6-[(1R,5S)-8-azabicyclo[3.2.1]oct-3-ylamino]pyridazin-3-yl}-5-(1H-pyrazol-4-yl)phenol] | 0.1 to 0.5 µM |
| COc1nc(-c2cn[nH]c2)ccc1-c1ccc(N(C)C2CC(C)(C)NC(C)(C)C2)nn1 [Cpd 434, 6-[2-methoxy-6-(1H-pyrazol-4-yl)pyridin-3-yl]-N-methyl-N-(2,2,6,6-tetramethylpiperidin-4-yl)pyridazin-3-amine] | 0.5 to 1 µM |
| CN(c1ccc(-c2ccc(O)cc2F)nn1)C1CC(C)(C)NC(C)(C)C1 [Cpd 440, 3-fluoro-4-{6-[methyl(2,2,6,6-tetramethylpiperidin-4-yl)amino]pyridazin-3-yl}phenol] | 3 to 9 µM |
| CN(c1ccc(-c2ccc3nn(C)cc3c2)nn1)C1CC(C)(C)NC(C)(C)C1 [Cpd 442, N-methyl-6-(2-methyl-2H-indazol-5-yl)-N-(2,2,6,6-tetramethylpiperidin-4-yl)pyridazin-3-amine] | 3 to 9 µM |
| Cc1nn2ccccc2c1-c1ccc(N(C)C2CC(C)(C)NC(C)(C)C2)nn1 [Cpd 445, N-methyl-6-(2-methylpyrazolo[1,5-a]pyridin-3-yl)-N-(2,2,6,6-tetramethylpiperidin-4-yl)pyridazin-3-amine] | 3 to 9 µM |
| Cn1cc(-c2ccc(-c3ccc(OC4CC(C)(C)NC(C)(C)C4)nn3)s2)cn1 [Cpd 449, 3-[5-(1-methyl-1H-pyrazol-4-yl)thiophen-2-yl]-6-[(2,2,6,6-tetramethylpiperidin-4-yl)oxy]pyridazine] | 3 to 9 µM |
| CN(c1ccc(-c2ccc(-c3cn[nH]c3)cc2F)nn1)C1CC(C)(C)NC(C)(C)C1 [Cpd 452, 6-[2-fluoro-4-(1H-pyrazol-4-yl)phenyl]-N-methyl-N-(2,2,6,6-tetramethylpiperidin-4-yl)pyridazin-3-amine] | 3 to 9 µM |
| CN(c1ccc(-c2ccc(-c3cn[nH]c3)cc2Cl)nn1)C1CC(C)(C)NC(C)(C)C1 [Cpd 456, 6-[2-chloro-4-(1H-pyrazol-4-yl)phenyl]-N-methyl-N-(2,2,6,6-tetramethylpiperidin-4-yl)pyridazin-3-amine] | 3 to 9 µM |
| CN(c1ccc(-c2ccc(-c3cn[nH]c3)nc2O)nn1)C1CC(C)(C)NC(C)(C)C1 [Cpd 460, 3-{6-[methyl(2,2,6,6-tetramethylpiperidin-4-yl)amino]pyridazin-3-yl}-6-(1H-pyrazol-4-yl)pyridin-2-ol] | 3 to 9 µM |

Second part, the molecule after the results:

| IC50 | Compound |
| --- | --- |
| ≤ 0.1 µM | CC1(C)CC(Oc2ccc(-c3ccc(-n4cc([N+](=O)[O-])cn4)cc3O)nn2)CC(C)(C)N1 [Cpd 423, 5-(4-nitro-1H-pyrazol-1-yl)-2-{6-[(2,2,6,6-tetramethylpiperidin-4-yl)oxy]pyridazin-3-yl}phenol] |
| 0.1 to 0.5 µM | Oc1cc(-c2cn[nH]c2)ccc1-c1ccc(NC2CCNCC2)nn1 [Cpd 427, 2-[6-(piperidin-4-ylamino)pyridazin-3-yl]-5-(1H-pyrazol-4-yl)phenol] |
| 0.1 to 0.5 µM | CC1(C)CC(Oc2ccc(-c3cc(F)c(-c4cn[nH]c4)cc3F)nn2)CC(C)(C)N1 [Cpd 431, 3-[2,5-difluoro-4-(1H-pyrazol-4-yl)phenyl]-6-[(2,2,6,6-tetramethylpiperidin-4-yl)oxy]pyridazine] |
| 0.1 to 0.5 µM | Oc1cc(-c2cn[nH]c2)ccc1-c1ccc(OC2CCNCC2)nn1 [Cpd 432, 2-[6-(piperidin-4-yloxy)pyridazin-3-yl]-5-(1H-pyrazol-4-yl)phenol] |
| 0.5 to 1 µM | CC1(C)CC(Oc2ccc(-c3ccc(-c4cn[nH]c4)cc3)nn2)CC(C)(C)N1 [Cpd 435, 3-[4-(1H-pyrazol-4-yl)phenyl]-6-[(2,2,6,6-tetramethylpiperidin-4-yl)oxy]pyridazine] |
| 0.5 to 1 µM | CC1CC(Oc2ccc(-c3ccc(-c4cn[nH]c4)cc3O)nn2)CC(C)N1 (stereo not drawn) [Cpd 436, 2-{6-[(2,6-dimethylpiperidin-4-yl)oxy]pyridazin-3-yl}-5-(1H-pyrazol-4-yl)phenol] |
| 1 to 3 µM | CC1(C)CC(Oc2ccc(-c3ccc(-c4cn[nH]c4)cc3F)nn2)CC(C)(C)N1 [Cpd 437, 3-[2-fluoro-4-(1H-pyrazol-4-yl)phenyl]-6-[(2,2,6,6-tetramethylpiperidin-4-yl)oxy]pyridazine] |
| 1 to 3 µM | Cn1cc(-c2csc(-c3ccc(OC4CC(C)(C)NC(C)(C)C4)nn3)c2)cn1 [Cpd 438, 3-[4-(1-methyl-1H-pyrazol-4-yl)thiophen-2-yl]-6-[(2,2,6,6-tetramethylpiperidin-4-yl)oxy]pyridazine] |
| 1 to 3 µM | Oc1cc(-c2cn[nH]c2)ccc1-c1ccc(N2CC3(CCNCC3)C2)nn1 [Cpd 439, 2-[6-(2,7-diazaspiro[3.5]non-2-yl)pyridazin-3-yl]-5-(1H-pyrazol-4-yl)phenol] |
| 3 to 9 µM | CC1CC(Oc2ccc(-c3ccc(-n4cccn4)cc3O)nn2)CC(C)N1 (stereo not drawn) [Cpd 441, 2-{6-[(2,6-dimethylpiperidin-4-yl)oxy]pyridazin-3-yl}-5-(1H-pyrazol-1-yl)phenol] |
| 3 to 9 µM | Cn1cc2cc(-c3ccc(OC4CC(C)(C)NC(C)(C)C4)nn3)ccc2n1 [Cpd 443, 2-methyl-5-{6-[(2,2,6,6-tetramethylpiperidin-4-yl)oxy]pyridazin-3-yl}-2H-indazole] |
| 3 to 9 µM | COc1cc(Cl)ccc1-c1ccc(OC2CC(C)(C)NC(C)(C)C2)nn1 [Cpd 444, 3-(4-chloro-2-methoxyphenyl)-6-[(2,2,6,6-tetramethylpiperidin-4-yl)oxy]pyridazine] |
| 3 to 9 µM | CC1(C)CC(Oc2ccc(-c3ccc4nccn4c3)nn2)CC(C)(C)N1 [Cpd 446, 6-{6-[(2,2,6,6-tetramethylpiperidin-4-yl)oxy]pyridazin-3-yl}imidazo[1,2-a]pyridine] |
| 3 to 9 µM | CC1(C)CC(Oc2ccc(-c3ccc(-c4cn[nH]c4)s3)nn2)CC(C)(C)N1 [Cpd 448, 3-[5-(1H-pyrazol-4-yl)thiophen-2-yl]-6-[(2,2,6,6-tetramethylpiperidin-4-yl)oxy]pyridazine] |
| 3 to 9 µM | CC1(C)CC(Oc2ccc(-c3cc(-c4cn[nH]c4)cs3)nn2)CC(C)(C)N1 [Cpd 450, 3-[4-(1H-pyrazol-4-yl)thiophen-2-yl]-6-[(2,2,6,6-tetramethylpiperidin-4-yl)oxy]pyridazine] |
| 3 to 9 µM | COc1cc(-n2cc([N+](=O)[O-])cn2)ccc1-c1ccc(OC2CC(C)(C)NC(C)(C)C2)nn1 [Cpd 454, 3-[2-methoxy-4-(4-nitro-1H-pyrazol-1-yl)phenyl]-6-[(2,2,6,6-tetramethylpiperidin-4-yl)oxy]pyridazine] |
| 3 to 9 µM | CC1(C)CC(Oc2ccc(-c3ccc(O)cc3O)nn2)CC(C)(C)N1 [Cpd 455, 4-{6-[(2,2,6,6-tetramethylpiperidin-4-yl)oxy]pyridazin-3-yl}benzene-1,3-diol] |
| 3 to 9 µM | CC1(C)CC(Oc2ccc(-c3nc(-c4cn[nH]c4)ncc3N)nn2)CC(C)(C)N1 [Cpd 457, 2-(1H-pyrazol-4-yl)-4-{6-[(2,2,6,6-tetramethylpiperidin-4-yl)oxy]pyridazin-3-yl}pyrimidin-5-amine] |
| 3 to 9 µM | CC1(C)CC(Oc2ccc(-c3c(F)cc(-c4cn[nH]c4)cc3F)nn2)CC(C)(C)N1 [Cpd 458, 3-[2,6-difluoro-4-(1H-pyrazol-4-yl)phenyl]-6-[(2,2,6,6-tetramethylpiperidin-4-yl)oxy]pyridazine] |
| 3 to 9 µM | Oc1cc(-c2cn[nH]c2)ccc1-c1ccc(N2CC3(CCNC3)C2)nn1 [Cpd 459, 2-[6-(2,6-diazaspiro[3.4]oct-2-yl)pyridazin-3-yl]-5-(1H-pyrazol-4-yl)phenol] |
| 3 to 9 µM | CC1(C)CC(Oc2ccc(-c3ccc(-c4cn[nH]c4)nc3O)nn2)CC(C)(C)N1 [Cpd 461, 6-(1H-pyrazol-4-yl)-3-{6-[(2,2,6,6-tetramethylpiperidin-4-yl)oxy]pyridazin-3-yl}pyridin-2-ol] |

From patent US11638706B2, “Methods for treating Huntington's disease” (PTC Therapeutics, Inc., priority 2015, dated 2023)
